One experiment concerns the target KIT (Homo sapiens, UniProt P10721). The experiment in a line: KIT in vitro kinase activity assay (HTRF kinEASE TK). In kind it is biochemical. The conditions noted are these: for inhibition at 0.01 µM: compound 10 nM, read-out: KIT inhibition rate, 10 nM; for inhibition at 0.1 µM: compound 100 nM, read-out: KIT inhibition rate, 100 nM. From the text: (§1) CSF-1R, PDGFR-α, KDR (VEGFR2) and KIT in vitro Kinase Activity Assay:
(§2) • ENVISION (Perkinelmer, 2104) • White 384-well MicroPlate (Cat #264706, Nunc) • HTRF kinEASE TK kit main reagents (Cat #62TKOPEC, Cisbio) • TK-biotin substrate • Streptavidin-XL665 • TK Antibody-Cryptate • 5× Enzymatic buffer (5×KB) • Staphylococcal enterotoxin B (SEB) • HTRF Detection buffer • CSF-1R (Cat #PV3249, Invitrogen) • PDGFR-α (Cat #PV3811, Invitrogen) • KDR (Cat #PV3660, Invitrogen) • KIT (Cat #08-156, Carna) • ATP 10 mM (Cat #PV3227, Invitrogen) • DTT 1 M (Cat #D5545, Sigma) • MgCl2 1 M (Cat #M8266, Sigma) • MnCl2 1 M (Cat #244589, Sigma)
(§3) Dilute Substrate-TK and ATP to 5× of the reaction concentration using 1× Kinase Buffer.
(§4) Prepare the 5× enzyme working solution using 1× Kinase Buffer.
(§5) Prepare the 4×Sa-XL665 working solution using Detection Buffer.
(§6) Dilute TK-Ab-Cryptate 100 times using Detection Buffer to prepare the working solution.
(§7) After all reagents were prepared according to the methods described above, except for the enzyme, they were equilibrated to room temperature before starting the sample addition. • a) First, 2.5% DMSO solutions were prepared separately using the pre-prepared 1× kinase buffer (DMSO concentrations that were too high could affect the reaction, so the final concentration of DMSO was controlled at 1%). Then, the corresponding 2.5% DMSO solution for the enzyme was used to dilute the test compounds. Compounds were screened with two concentrations of 100 nM and 10 nM. Except for the control wells, 4 μL of the diluted test compound solution was added to the reaction wells, and 4 μL of the pre-prepared 2.5% DMSO solution was added to the control wells. • b) 2 μL of the pre-prepared TK-biotin substrate solution at the corresponding concentration for the kinase was added to all reaction wells. • c) 2 μL of the pre-prepared enzyme solution at the corresponding concentration was added to all reaction wells except the negative control wells. For the negative control wells, 2 μL of 1× kinase buffer corresponding to the enzyme was added to make up the volume. The plate was sealed with sealing film, mixed gently, and incubated at room temperature for 10 min to allow the compounds to fully interact with the enzyme. • d) 2 μL of the ATP solution at the corresponding concentration for the enzyme was added to all reaction wells to initiate the kinase reaction. ATP concentrations and reaction times for enzyme screening are shown in Table 26 • e) Five minutes before the end of the kinase reaction, the detection solution was prepared. The detection buffer from the kit was used to prepare detection solutions for Streptavidin-XL665 and TK antibody europium cryptate (1:100) at the appropriate concentrations for the two enzymes. • f) After the kinase reaction was completed, 5 μL of the diluted Streptavidin-XL665 solution was added to all reaction wells. After mixing, the diluted TK antibody europium cryptate detection solution was immediately added. • g) The plate was sealed and mixed, incubated at room temperature for 1 hour, and the fluorescence signal was detected using the ENVISION (PerkinElmer) instrument (excitation at 320 nm, emission at 665 nm and 615 nm). The inhibition rate for each well was calculated based on the full-activity control wells and background signal wells, and the average value of the replicates was taken.
Background: In TR-FRET formats the signal depends on donor and acceptor labels being close together.

The target in the next experiment is PDGFR-α (Homo sapiens, UniProt P16234). Put plainly: PDGFR-α in vitro kinase activity assay (HTRF kinEASE TK). Format: biochemical. The conditions noted are these: for inhibition at 0.01 µM: compound 10 nM, read-out: PDGFRα inhibition rate, 10 nM; for inhibition at 0.1 µM: compound 100 nM, read-out: PDGFRα inhibition rate, 100 nM.
Sequence of PDGFR-α (P16234 24-1089): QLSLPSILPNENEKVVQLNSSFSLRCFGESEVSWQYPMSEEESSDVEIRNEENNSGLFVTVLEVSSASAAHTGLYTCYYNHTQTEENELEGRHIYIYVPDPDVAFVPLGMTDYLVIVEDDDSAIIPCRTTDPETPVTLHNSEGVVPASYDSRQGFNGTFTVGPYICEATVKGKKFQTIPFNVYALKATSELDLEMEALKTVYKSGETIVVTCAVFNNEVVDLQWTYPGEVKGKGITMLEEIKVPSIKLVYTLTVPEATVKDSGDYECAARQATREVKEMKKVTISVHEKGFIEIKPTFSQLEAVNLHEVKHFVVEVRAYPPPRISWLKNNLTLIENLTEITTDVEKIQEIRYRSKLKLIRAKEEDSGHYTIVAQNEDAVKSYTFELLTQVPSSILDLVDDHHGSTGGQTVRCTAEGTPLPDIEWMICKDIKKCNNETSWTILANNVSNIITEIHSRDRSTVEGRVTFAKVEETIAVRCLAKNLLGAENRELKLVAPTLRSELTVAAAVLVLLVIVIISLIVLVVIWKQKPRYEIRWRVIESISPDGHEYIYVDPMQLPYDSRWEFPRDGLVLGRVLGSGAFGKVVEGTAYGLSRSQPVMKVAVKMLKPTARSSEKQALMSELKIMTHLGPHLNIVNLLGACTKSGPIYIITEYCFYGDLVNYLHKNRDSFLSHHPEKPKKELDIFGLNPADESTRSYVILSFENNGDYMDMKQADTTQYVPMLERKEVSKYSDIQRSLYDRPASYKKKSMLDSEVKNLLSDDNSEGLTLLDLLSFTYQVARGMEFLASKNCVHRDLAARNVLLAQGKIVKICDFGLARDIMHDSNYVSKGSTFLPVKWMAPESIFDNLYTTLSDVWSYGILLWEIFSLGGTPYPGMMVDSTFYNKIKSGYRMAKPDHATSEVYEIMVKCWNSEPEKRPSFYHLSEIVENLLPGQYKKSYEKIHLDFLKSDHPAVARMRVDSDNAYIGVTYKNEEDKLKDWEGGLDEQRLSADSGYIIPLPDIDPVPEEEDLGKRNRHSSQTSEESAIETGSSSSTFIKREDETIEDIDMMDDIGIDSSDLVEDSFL
Excerpt: as §1, §2, §3, §4, §5, §6, §7

The next experiment concerns the target KDR (VEGFR2) (Homo sapiens, UniProt P35968). Put plainly: KDR (VEGFR2) in vitro kinase activity assay (HTRF kinEASE TK). The conditions noted are these: for inhibition at 0.01 µM: compound 10 nM, read-out: VEGFR2 inhibition rate, 10 nM; for inhibition at 0.1 µM: compound 100 nM, read-out: VEGFR2 inhibition rate, 100 nM. In kind it is biochemical.
Excerpt: as §1, §2, §3, §4, §5, §6, §7

The target in a further experiment is CSF-1R (Homo sapiens, UniProt P07333). Put plainly: CSF-1R in vitro kinase activity assay (HTRF kinEASE TK). In kind it is biochemical. The conditions noted are these: for inhibition at 0.01 µM: compound 10 nM, read-out: CSF-1R inhibition rate, 10 nM; for inhibition at 0.1 µM: compound 100 nM, read-out: CSF-1R inhibition rate, 100 nM.
Excerpt: as §1, §2, §3, §4, §5, §6, §7

A further experiment concerns the target DDR1 (Homo sapiens, UniProt Q08345). The experiment in a line: DDR1 in vitro kinase activity assay (LanthaScreen Eu-anti-GST antibody / Kinase Tracer 178). The conditions noted are these: for inhibition at 0.01 µM: compound 10 nM, read-out: DDR1 inhibition rate, 10 nM; for inhibition at 0.1 µM: compound 100 nM, read-out: DDR1 inhibition rate, 100 nM. In kind it is binding. As to the method:
DDR1 in vitro Kinase Activity Assay:
• ENVISION (Perkinelmer, 2104) • White 384-well MicroPlate (Cat #264706, Nunc) • DDR1 (Cat #PV6047, Invitrogen) • 5× Kinase Buffer A (Cat #PV3189, Invitrogen) • Kinase Tracer 178 (Cat #PV5593, Invitrogen) • LanthaScreen® Eu-anti-GST Antibody (Cat #PV5594, Invitrogen)
The compounds to be tested were tested at two concentrations of 100 nM and 10 nM.
Kinase/Antibody Mixtures Preparation: Dilute Kinase/Antibody Mixtures with 1× Kinase Buffer to form 3× working solutions with final concentrations of 5 nM kinase and 2 nM Eu-Anti-GST Antibody, respectively.
Kinase Tracer 178 Preparation: Dilute Kinase Tracer 178 with 1× Kinase Buffer to make a 3× working solution with a final concentration of 10 nM.
After all reagents were prepared according to the methods described above, except for the enzyme, they were equilibrated to room temperature before starting the sample addition. • a) First, 3% DMSO solutions were prepared separately using the pre-prepared 1× kinase buffer (DMSO concentrations that were too high could affect the reaction, so the final concentration of DMSO was controlled at 1%). Then, the corresponding 3% DMSO solution for the enzyme was used to dilute the test compounds. Compounds were screened with two concentrations of 100 nM and 10 nM. Except for the control wells, 5 μL of the diluted test compound solution was added to the reaction wells, and 5 μL of the pre-prepared 3% DMSO solution was added to the control wells. • b) 5 μL of the pre-prepared Kinase/Antibody mixtures was added to all reaction wells except the negative control wells. For the negative control wells, 5 μL of 1× kinase buffer corresponding to the enzyme was added to make up the volume. • c) 5 μL of the pre-prepared Kinase Tracer 178 solution was added to all reaction wells. • d) The plate was sealed and mixed, incubated at room temperature for 1 hour, and the fluorescence signal was detected using the ENVISION (PerkinElmer) instrument (excitation at 340 nm, emission at 665 nm and 615 nm). The inhibition rate for each well was calculated based on the full-activity control wells and background signal wells, and the average value of the replicates was taken.

Molecules are shown by their SMILES.

Sequence of DDR1 (Q08345 19-913): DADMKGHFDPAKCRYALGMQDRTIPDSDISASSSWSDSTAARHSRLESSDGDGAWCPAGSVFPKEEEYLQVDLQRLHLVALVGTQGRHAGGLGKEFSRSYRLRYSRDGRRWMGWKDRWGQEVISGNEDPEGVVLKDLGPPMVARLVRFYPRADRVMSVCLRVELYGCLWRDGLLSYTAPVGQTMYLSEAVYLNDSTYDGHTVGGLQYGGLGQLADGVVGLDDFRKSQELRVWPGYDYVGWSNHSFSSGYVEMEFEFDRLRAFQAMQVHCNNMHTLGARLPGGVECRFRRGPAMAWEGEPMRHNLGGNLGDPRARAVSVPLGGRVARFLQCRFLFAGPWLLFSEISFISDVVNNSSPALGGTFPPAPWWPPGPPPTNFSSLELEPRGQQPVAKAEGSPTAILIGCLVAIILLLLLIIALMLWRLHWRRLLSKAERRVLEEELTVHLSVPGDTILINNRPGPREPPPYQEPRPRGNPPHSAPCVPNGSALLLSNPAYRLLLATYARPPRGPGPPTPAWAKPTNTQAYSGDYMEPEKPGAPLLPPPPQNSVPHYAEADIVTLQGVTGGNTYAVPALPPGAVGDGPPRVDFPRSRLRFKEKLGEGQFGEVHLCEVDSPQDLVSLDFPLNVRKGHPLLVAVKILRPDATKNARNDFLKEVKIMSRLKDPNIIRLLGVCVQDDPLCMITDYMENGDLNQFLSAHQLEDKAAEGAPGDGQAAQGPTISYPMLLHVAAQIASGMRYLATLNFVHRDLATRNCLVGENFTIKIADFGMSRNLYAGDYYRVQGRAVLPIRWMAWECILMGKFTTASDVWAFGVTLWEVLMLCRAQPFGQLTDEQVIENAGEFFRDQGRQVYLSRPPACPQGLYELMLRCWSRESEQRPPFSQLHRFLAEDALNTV
Sequence of KDR (VEGFR2) (P35968 20-1356): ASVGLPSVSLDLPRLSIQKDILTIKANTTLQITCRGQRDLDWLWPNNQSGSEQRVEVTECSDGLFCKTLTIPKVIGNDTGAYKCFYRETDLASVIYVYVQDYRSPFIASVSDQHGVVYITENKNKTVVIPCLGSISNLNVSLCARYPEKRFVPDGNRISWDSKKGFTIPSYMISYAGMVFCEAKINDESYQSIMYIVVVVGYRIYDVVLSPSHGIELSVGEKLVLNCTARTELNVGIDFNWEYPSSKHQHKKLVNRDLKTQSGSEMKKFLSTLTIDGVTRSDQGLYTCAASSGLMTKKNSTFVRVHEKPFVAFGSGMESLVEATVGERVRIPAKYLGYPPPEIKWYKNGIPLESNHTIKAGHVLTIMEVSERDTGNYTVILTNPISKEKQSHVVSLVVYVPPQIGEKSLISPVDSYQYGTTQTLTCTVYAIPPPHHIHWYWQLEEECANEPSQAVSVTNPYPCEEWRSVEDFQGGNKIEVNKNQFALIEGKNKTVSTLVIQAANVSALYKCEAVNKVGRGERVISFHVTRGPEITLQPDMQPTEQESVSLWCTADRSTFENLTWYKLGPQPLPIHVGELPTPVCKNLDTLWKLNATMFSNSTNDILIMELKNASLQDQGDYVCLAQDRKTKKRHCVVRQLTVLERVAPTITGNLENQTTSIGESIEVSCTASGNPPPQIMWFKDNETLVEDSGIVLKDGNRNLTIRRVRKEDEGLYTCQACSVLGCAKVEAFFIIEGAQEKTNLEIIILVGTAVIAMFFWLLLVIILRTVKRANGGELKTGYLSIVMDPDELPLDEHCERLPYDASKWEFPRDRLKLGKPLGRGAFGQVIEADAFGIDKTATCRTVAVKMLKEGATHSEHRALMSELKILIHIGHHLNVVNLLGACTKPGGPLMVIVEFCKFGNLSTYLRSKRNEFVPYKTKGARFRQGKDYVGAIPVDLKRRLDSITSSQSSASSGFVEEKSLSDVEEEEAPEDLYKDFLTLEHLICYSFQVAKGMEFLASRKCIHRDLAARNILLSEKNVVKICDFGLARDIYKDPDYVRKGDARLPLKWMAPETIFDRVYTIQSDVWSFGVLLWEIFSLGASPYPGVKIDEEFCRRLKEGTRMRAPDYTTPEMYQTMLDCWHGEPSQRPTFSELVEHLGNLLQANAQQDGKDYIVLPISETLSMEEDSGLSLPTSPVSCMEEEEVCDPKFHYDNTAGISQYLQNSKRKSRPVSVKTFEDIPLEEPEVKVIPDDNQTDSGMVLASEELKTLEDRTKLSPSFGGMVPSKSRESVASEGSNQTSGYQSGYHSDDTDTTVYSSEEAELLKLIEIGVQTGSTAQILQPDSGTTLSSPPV
Sequence of KIT (P10721 26-976): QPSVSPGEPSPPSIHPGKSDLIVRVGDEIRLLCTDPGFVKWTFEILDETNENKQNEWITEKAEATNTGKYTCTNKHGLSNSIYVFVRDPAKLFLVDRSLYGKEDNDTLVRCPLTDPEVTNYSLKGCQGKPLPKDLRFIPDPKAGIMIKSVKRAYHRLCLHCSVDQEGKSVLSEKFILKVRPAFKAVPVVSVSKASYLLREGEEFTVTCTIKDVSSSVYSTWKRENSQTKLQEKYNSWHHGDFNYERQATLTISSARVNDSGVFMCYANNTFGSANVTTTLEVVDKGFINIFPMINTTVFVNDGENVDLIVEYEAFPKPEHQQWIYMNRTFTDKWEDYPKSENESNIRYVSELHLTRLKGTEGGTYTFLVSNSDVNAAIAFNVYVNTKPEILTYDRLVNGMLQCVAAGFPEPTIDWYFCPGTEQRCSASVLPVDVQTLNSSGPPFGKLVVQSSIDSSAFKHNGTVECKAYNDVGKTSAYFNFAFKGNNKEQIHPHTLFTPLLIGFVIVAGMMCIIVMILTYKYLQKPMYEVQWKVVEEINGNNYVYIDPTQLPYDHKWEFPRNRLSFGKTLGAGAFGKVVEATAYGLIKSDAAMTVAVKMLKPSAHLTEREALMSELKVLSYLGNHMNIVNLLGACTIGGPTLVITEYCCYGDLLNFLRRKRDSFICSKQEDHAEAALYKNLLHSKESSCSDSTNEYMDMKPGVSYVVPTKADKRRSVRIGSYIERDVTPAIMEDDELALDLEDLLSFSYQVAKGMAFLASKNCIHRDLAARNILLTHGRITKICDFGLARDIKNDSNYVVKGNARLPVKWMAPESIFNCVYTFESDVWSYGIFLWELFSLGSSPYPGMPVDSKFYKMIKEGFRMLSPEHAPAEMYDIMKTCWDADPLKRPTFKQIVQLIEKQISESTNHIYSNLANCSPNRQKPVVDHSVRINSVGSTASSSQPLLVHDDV

For orientation: inhibition means the relative decrease from the control value, in per cent. Turning to `Cn1cc(-c2cncc(N[C@H]3CCc4c(C(=O)Nc5nn(C)c6ccccc56)cccc43)n2)cn1` [Compound 27g, (S)—N-(1-methyl-1H-indazol-3-yl)-1-((6-(1-methyl-1H-pyrazol-4-yl)pyrazin-2-yl)amino)-2,3-dihydro-1H-indene-4-carboxamide], the inhibition at 0.01 µM worked out at 89.6% on KIT; 94.7% at PDGFR-α; 88.9% at KDR (VEGFR2); 75.2% on CSF-1R; 92.1% on DDR1. Further, the inhibition at 0.1 µM on KIT came to 100%; at PDGFR-α it was 98.9%; at KDR (VEGFR2) it was 100%; at CSF-1R it was 95.8%; at DDR1, 101%.

On to `Cn1cc(-c2cncc(N[C@H]3CCc4c(Nc5cc(C(C)(C)C)on5)cccc43)c2)cn1` [Compound 41, (S)—N^4-(5-(tert-butyl)isoxazol-3-yl)-N^1-(5-(1-methyl-1H-pyrazol-4-yl)pyridin-3-yl)-2,3-dihydro-1H-indene-1,4-diamine], for which the inhibition at 0.01 µM on KIT came out at 7.5%; at PDGFR-α it was 55.5%; on KDR (VEGFR2), 18.6%; at CSF-1R, 26.9%; on DDR1 it was 20.2%. Also, the inhibition at 0.1 µM at KIT stood at 66.4%; at PDGFR-α, 100%; on KDR (VEGFR2) it was 63.9%; at CSF-1R it was 100%; at DDR1, 78.2%.

Turning to `Cn1cc(-c2cncc(N[C@H]3CCc4c(Nc5noc(C(C)(C)C)n5)cccc43)c2)cn1` [Compound 42o], the inhibition at 0.01 µM on KIT worked out at 14.5%; on PDGFR-α, 15.4%; at KDR (VEGFR2) it was 28.9%; on CSF-1R it was 55.8%; at DDR1, 4.1%. Further, the inhibition at 0.1 µM on KIT is 38.8%; at PDGFR-α, 57.8%; on KDR (VEGFR2), 65.6%; on CSF-1R, 100%; at DDR1, 67.6%.

For the compound `Cn1ncc2ncc(N[C@H]3CCc4c(C(=O)Nc5cccc(C6CC6)c5)cccc43)cc21` [Compound 73, (S)—N-(3-cyclopropylphenyl)-1-((1-methyl-1H-pyrazolo[4,3-b]pyridin-6-yl)amino)-2,3-dihydro-1H-indene-4-carboxamide], the inhibition at 0.01 µM amounted to 59.1% on KIT; 90% at PDGFR-α; 68.3% on KDR (VEGFR2); 70.2% at CSF-1R; 72.5% on DDR1. The inhibition at 0.1 µM at KIT was 99.7%; on PDGFR-α, 100%; at KDR (VEGFR2), 100%; at CSF-1R, 101%; at DDR1, 103%.

Turning to `Cn1cc2ncc(N[C@H]3CCc4c(C(=O)Nc5nc(C6CC6)cs5)cccc43)cc2n1` [Compound 74h, (S)—N-(4-cyclopropylthiazol-2-yl)-1-((2-methyl-2H-pyrazolo[4,3-b]pyridin-6-yl)amino)-2,3-dihydro-1H-indene-4-carboxamide], the inhibition at 0.01 µM at KIT amounted to 35.3%; at PDGFR-α, 29.3%; on KDR (VEGFR2) it was 60.3%; at CSF-1R, 72.6%; at DDR1, 57.2%. Moreover, the inhibition at 0.1 µM on KIT came out at 94.9%; on PDGFR-α, 94.8%; on KDR (VEGFR2), 94.9%; on CSF-1R it was 96.3%; on DDR1 it was 99.9%.

(Values after patent US20260125359A1, “HETEROARYL COMPOUNDS AS MULTI-TARGET PROTEIN KINASE INHIBITORS” (FUJIAN HAIXI PHARMACEUTICALS CO., LTD., priority 2023, published 2026).)
